Read-outs that look alike come from different tables or passages of the source.
Experiments:
β1-AR [1] = biological target: T1, β1-AR (Homo sapiens, UniProt P08588); test: radioligand binding assay, β1-AR, [3H]CGP12177; settings: radioligand [3H]CGP12177; values given as a range are from screening experiments with a low number of repeats; read-out: Ki β1-AR [3H]CGP12177
Protocol: (§1) The binding affinities of exemplary compounds of interest at β1AR and β2AR were evaluated in a binding assay.
Target sequence in this assay (P08588 whole entry): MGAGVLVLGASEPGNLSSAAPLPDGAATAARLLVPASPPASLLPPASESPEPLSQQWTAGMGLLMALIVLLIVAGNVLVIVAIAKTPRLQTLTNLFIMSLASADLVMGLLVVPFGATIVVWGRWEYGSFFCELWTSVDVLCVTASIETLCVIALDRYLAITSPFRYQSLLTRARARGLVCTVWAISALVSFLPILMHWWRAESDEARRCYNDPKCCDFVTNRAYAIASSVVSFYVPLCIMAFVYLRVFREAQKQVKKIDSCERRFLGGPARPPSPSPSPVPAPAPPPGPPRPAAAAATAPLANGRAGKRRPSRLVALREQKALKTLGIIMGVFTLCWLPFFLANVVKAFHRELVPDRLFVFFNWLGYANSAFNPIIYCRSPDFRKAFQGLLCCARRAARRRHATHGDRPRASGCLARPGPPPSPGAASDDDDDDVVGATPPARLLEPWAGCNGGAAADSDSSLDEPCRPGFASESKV

β2-AR [2] = biological target: T2, β2-AR (Homo sapiens, UniProt P07550); test: radioligand binding assay, β2-AR, [3H]CGP12177; settings: radioligand [3H]CGP12177; values given as a range are from screening experiments with a low number of repeats; read-out: Ki β2-AR [3H]CGP12177
Protocol: as §1
Target sequence in this assay (P07550 whole entry): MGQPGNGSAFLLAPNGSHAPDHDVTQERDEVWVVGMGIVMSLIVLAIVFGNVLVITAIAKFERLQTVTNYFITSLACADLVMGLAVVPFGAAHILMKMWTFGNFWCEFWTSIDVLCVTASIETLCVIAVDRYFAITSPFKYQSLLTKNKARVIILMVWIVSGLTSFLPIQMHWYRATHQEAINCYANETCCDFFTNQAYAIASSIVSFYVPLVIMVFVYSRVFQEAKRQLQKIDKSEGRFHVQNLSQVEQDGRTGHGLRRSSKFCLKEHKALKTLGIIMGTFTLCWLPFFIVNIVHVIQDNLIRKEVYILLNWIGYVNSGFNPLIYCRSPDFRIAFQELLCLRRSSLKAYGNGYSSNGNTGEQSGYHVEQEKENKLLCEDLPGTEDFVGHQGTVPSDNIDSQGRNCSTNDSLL

•1A-AR = biological target: T3, •1A-AR (Homo sapiens, UniProt P35348); test: radioligand binding assay, α1A-AR, [3H]prazosin
T3 sequence (P35348 1-466): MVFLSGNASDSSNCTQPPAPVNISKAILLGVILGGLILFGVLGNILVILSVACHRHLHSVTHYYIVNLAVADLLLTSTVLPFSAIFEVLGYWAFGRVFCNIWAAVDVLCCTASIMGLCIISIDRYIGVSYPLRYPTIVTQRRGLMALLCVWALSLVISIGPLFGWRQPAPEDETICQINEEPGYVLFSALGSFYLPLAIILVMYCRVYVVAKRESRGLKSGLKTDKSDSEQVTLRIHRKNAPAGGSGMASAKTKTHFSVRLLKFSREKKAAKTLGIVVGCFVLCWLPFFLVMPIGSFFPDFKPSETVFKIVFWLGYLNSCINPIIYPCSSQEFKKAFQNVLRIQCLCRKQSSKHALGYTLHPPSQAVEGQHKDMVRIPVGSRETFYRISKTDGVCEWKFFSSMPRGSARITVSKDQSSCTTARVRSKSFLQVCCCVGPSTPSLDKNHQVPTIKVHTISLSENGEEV

α2A-AR = biological target: T4, α2A-AR (Homo sapiens, UniProt P08913); test: radioligand binding assay, α2A-AR, [3H]RX821002; settings: radioligand [3H]RX821002; values given as a range are from screening experiments with a low number of repeats
T4 sequence (P08913 1-465): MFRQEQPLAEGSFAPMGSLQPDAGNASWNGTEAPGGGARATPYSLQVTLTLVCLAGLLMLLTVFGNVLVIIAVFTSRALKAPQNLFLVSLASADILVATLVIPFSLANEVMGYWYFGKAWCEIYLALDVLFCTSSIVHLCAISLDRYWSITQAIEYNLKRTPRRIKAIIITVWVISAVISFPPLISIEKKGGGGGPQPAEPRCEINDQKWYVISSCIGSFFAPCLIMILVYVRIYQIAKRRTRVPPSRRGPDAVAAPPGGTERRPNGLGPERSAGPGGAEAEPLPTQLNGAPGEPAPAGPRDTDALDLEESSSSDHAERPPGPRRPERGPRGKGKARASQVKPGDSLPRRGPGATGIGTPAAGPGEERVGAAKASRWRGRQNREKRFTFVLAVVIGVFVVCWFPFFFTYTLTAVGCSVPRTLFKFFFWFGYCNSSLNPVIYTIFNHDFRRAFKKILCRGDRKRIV

β1-AR [3] = biological target: T1, β1-AR; test: β-arrestin-2 recruitment assay at β1-AR; assay type: cell-based; settings: for EC50: n.d. = could not be determined because of lack of activity, ranges from screening experiments with a low number of repeats, read-out: β-arrestin-2 recruitment β1-AR EC50; for β-arrestin-2 recruitment β1-AR Emax: relative to norepinephrine
Target sequence in this assay (P08588 whole entry): as the sequence (P08588 whole entry) above
Target sequence in this assay (P32121 whole entry partner): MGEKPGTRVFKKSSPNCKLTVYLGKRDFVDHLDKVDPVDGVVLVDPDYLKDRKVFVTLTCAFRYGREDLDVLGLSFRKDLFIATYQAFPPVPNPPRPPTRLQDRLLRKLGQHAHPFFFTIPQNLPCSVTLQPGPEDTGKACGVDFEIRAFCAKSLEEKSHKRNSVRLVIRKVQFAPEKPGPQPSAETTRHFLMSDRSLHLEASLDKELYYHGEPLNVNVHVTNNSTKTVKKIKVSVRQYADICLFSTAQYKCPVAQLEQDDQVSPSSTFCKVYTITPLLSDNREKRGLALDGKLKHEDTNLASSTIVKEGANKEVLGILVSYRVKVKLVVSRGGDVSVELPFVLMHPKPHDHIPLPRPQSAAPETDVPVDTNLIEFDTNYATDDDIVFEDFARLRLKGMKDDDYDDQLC

β2-AR [4] = biological target: T2, β2-AR; test: β-arrestin-2 recruitment assay at β2-AR; assay type: cell-based; settings: for EC50: ranges from screening experiments with a low number of repeats; for β-arrestin-2 recruitment β2-AR Emax: relative to norepinephrine
Target sequence in this assay (P07550 whole entry): as the sequence (P07550 whole entry) above
Target sequence in this assay (P32121 whole entry partner): as the sequence (P32121 whole entry partner) above

[5] = radioligand [3H]prazosin, values given as a range are from screening experiments with a low number of repeats, read-out: Ki •1A-AR [3H]prazosin
[6] = n.d. = could not be determined because of lack of activity, read-out: β-arrestin-2 recruitment β2-AR EC50

Ki (β1-AR [1]) | Ki (β2-AR [2]) | Ki (•1A-AR; [5]) | Ki (α2A-AR) | EC50 (β1-AR [3]) | β-arrestin-2 recruitment β1-AR Emax (β1-AR [3]) | EC50 (β2-AR [4]; [6]) | β-arrestin-2 recruitment β2-AR Emax (β2-AR [4]) | Compound | Ki (•1A-AR) | EC50 (β2-AR [4]; β-arrestin-2 recruitment β2-AR EC50, n.d. = could not be determined because of lack of activity)
10 µM | 0.63 µM | > 100 µM | 53 µM | 12 µM | 18 % norepinephrine | 0.64 µM | 109 % norepinephrine | Oc1ccc2c(c1O)CC[C@@H](NC(CF)CF)[C@@H]2O [LM 103, (5R,6R)-6-((1,3-difluoropropan-2-yl)amino)-5,6,7,8-tetrahydronaphthalene-1,2,5-triol] | – | –
7.5 µM | 0.097 µM | – | 18 µM | 10 µM | 90 % norepinephrine | 0.025 µM | 111 % norepinephrine | Oc1ccc2c(c1O)CC[C@@H](NCCCF)[C@@H]2O [LM 75, (5R,6R)-6-((3-fluoropropyl)amino)-5,6,7,8-tetrahydronaphthalene-1,2,5-triol] | 23 µM | –
40 to 80 µM | 0.6 to 1.5 µM | 10 to 20 µM | 6 to 12 µM | 30 to 60 µM | 35 % norepinephrine | 0.5 to 1 µM | 125 % norepinephrine | COCC(COC)N[C@@H]1CCc2c(ccc(O)c2O)[C@H]1O [LM 114, (5R,6R)-6-((1,3-dimethoxypropan-2-yl)amino)-5,6,7,8-tetrahydronaphthalene-1,2,5-triol] | – | –
7 µM | 0.28 µM | > 90 µM | 30 µM | 3 µM | 81 % norepinephrine | 0.066 µM | 110 % norepinephrine | Oc1ccc2c(c1O)CC[C@@H](NCCF)[C@@H]2O [LM 80, (5R,6R)-6-((2-fluoroethyl)amino)-5,6,7,8-tetrahydronaphthalene-1,2,5-triol] | – | –

Compound | Ki (β1-AR [1]) | Ki (β2-AR [2]) | Ki (•1A-AR; [5]) | Ki (α2A-AR) | EC50 (β1-AR [3]) | β-arrestin-2 recruitment β1-AR Emax (β1-AR [3]) | EC50 (β2-AR [4]; [6]) | β-arrestin-2 recruitment β2-AR Emax (β2-AR [4]) | Ki (•1A-AR) | EC50 (β2-AR [4]; β-arrestin-2 recruitment β2-AR EC50, n.d. = could not be determined because of lack of activity)
Oc1ccc2c(c1O)CC[C@@H](NCC1CCC1)[C@@H]2O [LM 110, (5R,6R)-6-((cyclobutylmethyl)amino)-5,6,7,8-tetrahydronaphthalene-1,2,5-triol] | 51 µM | 0.17 µM | – | 9.9 µM | 22 µM | 25 % norepinephrine | – | 116 % norepinephrine | 4 µM | 0.079 µM
